Assay results taken from patent US8232305B2, “Anti-microbial compositions” (BASF SE, priority 2006, dated 2012).

Assays:
Format in all cases: cell-based
[1] = tested on: Aspergillus niger; experiment: Fungicidal activity according to EN12175; conditions: spores about 10^6 cfu/ml, vs water control; for log reduction A. niger 30 min: 1%
Protocol: (§1) Fungicidal activity is tested according to EN12175. A fungal spore suspension with a spore cell count of about 10^6 cfu/ml is contacted with appropriate concentrations of the specific substances and the residual spore cell count determined after incubation times of 30 and 60 minutes at room temperature under continuous stirring. Penicillium funiculosum, Aspergillus niger and Aureobasidium pullulans are tested as important mold strains. The results are given as a log reduction at each incubation time in comparison to a water control.

[2] = tested on: Penicillium funiculosum; experiment: Fungicidal activity according to EN12175; conditions: spores about 10^6 cfu/ml, vs water control; for log reduction P. funiculosum 30 min: 1%
Protocol: as §1

[3] = tested on: Aureobasidium pullulans; experiment: Fungicidal activity according to EN12175; conditions: spores about 10^6 cfu/ml, vs water control; for log reduction A. pullulans 30 min: 1%
Protocol: as §1

[4] = tested on: C. albicans; experiment: Preservative challenge test in cosmetic emulsions (EurPh and USP); conditions: 0.5% w/w
Protocol: (§2) A preservative challenge test is conducted for representative cosmetic formulations according to the conditions of the EurPh and USP. The compound concentration in the formulations is 0.5% w/w. The Inoculum concentration of the five different strains is 2.1-4.2×10^5 cfu/ml, incubation time according to EurPh. 2, 7, 14 and 28 days. Preservation is investigated in two different emulsion types, w/o and o/w.

[5] = tested on: P. aerug.; experiment: as above; conditions: 0.5% w/w
Protocol: as §2

[6] = tested on: S. aureus; experiment: as above; conditions: 0.5% w/w
Protocol: as §2

[7] = tested on: E. coli; experiment: as above; conditions: 0.5% w/w
Protocol: as §2

[8] = tested on: A. niger; experiment: as above; conditions: 0.5% w/w
Protocol: as §2

[9] = tested on: S. aureus ATCC 6538; experiment: Microbicidal activity under conditions similar to a preservative challenge test; conditions: 0.5%, inoculum 10^5 cfu/ml
Protocol: (§3) A bacterial suspension with a cell count of about 10^7 cfu/ml is contacted with appropriate concentrations of the specific substances and the residual cell count determined after incubation times of 5 and 30 minutes at room temperature under continuous stirring. Staphylococcus aureus was tested as gram+ and Escherichia coli as gram− organism. The results are given as a log reduction in comparison to a growth control in water.
(§4) The test procedure of Example 7 is used, with an inoculum concentration of 10^5 cfu/ml and incubation times of 48 and 72 hours; figures given as log reduction.

[10] = tested on: E. coli ATCC 10536; experiment: as above; conditions: 0.5%, inoculum 10^5 cfu/ml
Protocol: as §3, §4

[11] = tested on: C. albicans ATCC 10231; experiment: as above; conditions: 0.5%, inoculum 10^5 cfu/ml
Protocol: as §3, §4

[12] = tested on: A. niger ATCC 16404; experiment: as above; conditions: 0.5%, inoculum 10^5 cfu/ml
Protocol: as §3, §4

[13] = tested on: P. aeruginosa ATCC 15442; experiment: as above; conditions: 0.5%, inoculum 10^5 cfu/ml
Protocol: as §3, §4

[14] = tested on: Staphylococcus aureus; experiment: Microbicidal activity according to EN1040; conditions: 1000 ppm, room temperature, vs growth control in water
Protocol: as §3

[15] = tested on: Escherichia coli; experiment: Microbicidal activity according to EN1040; conditions: 1000 ppm, room temperature, vs growth control in water
Protocol: as §3

## CCCCCCCCCCCCOC(=O)C[n+]1ccn(C)c1.[Br-] [Ex 4]
[1]
  log reduction A. niger 30 min: 2.1 log
  log reduction A. niger 1 h: >4 log
[2]
  log reduction P. funiculosum 30 min: <1 log
  log reduction P. funiculosum 1 h: 1.9 log
[3]
  log reduction A. pullulans 30 min: >4 log
  log reduction A. pullulans 1 h: >4 log
[4]; O/W emulsion, 2 days
  Log Reduction C. albicans: 0 log
[4]; O/W emulsion, 7 days
  Log Reduction C. albicans: 0 log
[4]; O/W emulsion, 14 days
  Log Reduction C. albicans: 0 log
[4]; O/W emulsion, 28 days
  Log Reduction C. albicans: 0 log
[4]; W/O emulsion, 2 days
  Log Reduction C. albicans: 2 log
[4]; W/O emulsion, 7 days
  Log Reduction C. albicans: 3 log
[4]; W/O emulsion, 14 days
  Log Reduction C. albicans: 3 log
[4]; W/O emulsion, 28 days
  Log Reduction C. albicans: 5 log
[5]; O/W emulsion, 2 days
  Log Reduction P. aerug.: ≧4 log
[5]; O/W emulsion, 7 days
  Log Reduction P. aerug.: 5 log
[5]; O/W emulsion, 14 days
  Log Reduction P. aerug.: 5 log
[5]; O/W emulsion, 28 days
  Log Reduction P. aerug.: 5 log
[5]; W/O emulsion, 2 days
  Log Reduction P. aerug.: 5 log
[5]; W/O emulsion, 7 days
  Log Reduction P. aerug.: 5 log
[5]; W/O emulsion, 14 days
  Log Reduction P. aerug.: 5 log
[5]; W/O emulsion, 28 days
  Log Reduction P. aerug.: 5 log
[6]; O/W emulsion, 2 days
  Log Reduction S. aureus: 4 log
[6]; O/W emulsion, 7 days
  Log Reduction S. aureus: 6 log
[6]; O/W emulsion, 14 days
  Log Reduction S. aureus: 6 log
[6]; O/W emulsion, 28 days
  Log Reduction S. aureus: 6 log
[6]; W/O emulsion, 2 days
  Log Reduction S. aureus: 6 log
[6]; W/O emulsion, 7 days
  Log Reduction S. aureus: 6 log
[6]; W/O emulsion, 14 days
  Log Reduction S. aureus: 6 log
[6]; W/O emulsion, 28 days
  Log Reduction S. aureus: 6 log
[7]; O/W emulsion, 2 days
  Log Reduction E. coli: 1 log
[7]; O/W emulsion, 7 days
  Log Reduction E. coli: 1 log
[7]; O/W emulsion, 14 days
  Log Reduction E. coli: 2 log
[7]; O/W emulsion, 28 days
  Log Reduction E. coli: ≧4 log
[7]; W/O emulsion, 2 days
  Log Reduction E. coli: 6 log
[7]; W/O emulsion, 7 days
  Log Reduction E. coli: 6 log
[7]; W/O emulsion, 14 days
  Log Reduction E. coli: 6 log
[7]; W/O emulsion, 28 days
  Log Reduction E. coli: 6 log
[8]; O/W emulsion, 2 days
  Log Reduction A. niger: 0 log
[8]; O/W emulsion, 7 days
  Log Reduction A. niger: 0 log
[8]; O/W emulsion, 14 days
  Log Reduction A. niger: 0 log
[8]; O/W emulsion, 28 days
  Log Reduction A. niger: 0 log
[8]; W/O emulsion, 2 days
  Log Reduction A. niger: 0 log
[8]; W/O emulsion, 7 days
  Log Reduction A. niger: 1 log
[8]; W/O emulsion, 14 days
  Log Reduction A. niger: 2 log
[8]; W/O emulsion, 28 days
  Log Reduction A. niger: 2 log
[9]
  log reduction S. aureus ATCC 6538 48 h: >3 log
  log reduction S. aureus ATCC 6538 72 h: >3 log
[10]
  log reduction E. coli ATCC 10536 48 h: >3 log
  log reduction E. coli ATCC 10536 72 h: >3 log
[11]
  log reduction C. albicans ATCC 10231 48 h: >3 log
  log reduction C. albicans ATCC 10231 72 h: >3 log
[12]
  log reduction A. niger ATCC 16404 48 h: 1.8 log
  log reduction A. niger ATCC 16404 72 h: 2.3 log
[13]
  log reduction P. aeruginosa ATCC 15442 48 h: >3 log
  log reduction P. aeruginosa ATCC 15442 72 h: >3 log
[14]
  log reduction S. aureus 5 min.: >5 log
  log reduction S. aureus 30 min.: >5 log
[15]
  log reduction E. coli 5 min.: >5 log
  log reduction E. coli 30 min.: >5 log

## CCCCCCCCOC(=O)C[n+]1ccn(C)c1.[Br-] [Ex 2, 1-methyl-3-(2-oxo-2-octyloxyethyl)-1H-Imidazolium bromide]
[1]
  log reduction A. niger 30 min: <1 log
  log reduction A. niger 1 h: 2.0 log
[2]
  log reduction P. funiculosum 30 min: <1 log
  log reduction P. funiculosum 1 h: <1 log
[3]
  log reduction A. pullulans 30 min: >4 log
  log reduction A. pullulans 1 h: >4 log
[4]; O/W emulsion, 2 days
  Log Reduction C. albicans: 0 log
[4]; O/W emulsion, 7 days
  Log Reduction C. albicans: 2 log
[4]; O/W emulsion, 14 days
  Log Reduction C. albicans: ≧3 log
[4]; O/W emulsion, 28 days
  Log Reduction C. albicans: 5 log
[4]; W/O emulsion, 2 days
  Log Reduction C. albicans: 1 log
[4]; W/O emulsion, 7 days
  Log Reduction C. albicans: ≧3 log
[4]; W/O emulsion, 14 days
  Log Reduction C. albicans: 5 log
[4]; W/O emulsion, 28 days
  Log Reduction C. albicans: 5 log
[5]; O/W emulsion, 2 days
  Log Reduction P. aerug.: ≧4 log
[5]; O/W emulsion, 7 days
  Log Reduction P. aerug.: 5 log
[5]; O/W emulsion, 14 days
  Log Reduction P. aerug.: 5 log
[5]; O/W emulsion, 28 days
  Log Reduction P. aerug.: 5 log
[5]; W/O emulsion, 2 days
  Log Reduction P. aerug.: 5 log
[5]; W/O emulsion, 7 days
  Log Reduction P. aerug.: 5 log
[5]; W/O emulsion, 14 days
  Log Reduction P. aerug.: 5 log
[5]; W/O emulsion, 28 days
  Log Reduction P. aerug.: 5 log
[6]; O/W emulsion, 2 days
  Log Reduction S. aureus: ≧4 log
[6]; O/W emulsion, 7 days
  Log Reduction S. aureus: 6 log
[6]; O/W emulsion, 14 days
  Log Reduction S. aureus: 6 log
[6]; O/W emulsion, 28 days
  Log Reduction S. aureus: 6 log
[6]; W/O emulsion, 2 days
  Log Reduction S. aureus: 6 log
[6]; W/O emulsion, 7 days
  Log Reduction S. aureus: 6 log
[6]; W/O emulsion, 14 days
  Log Reduction S. aureus: 6 log
[6]; W/O emulsion, 28 days
  Log Reduction S. aureus: 6 log
[7]; O/W emulsion, 2 days
  Log Reduction E. coli: 3 log
[7]; O/W emulsion, 7 days
  Log Reduction E. coli: ≧4 log
[7]; O/W emulsion, 14 days
  Log Reduction E. coli: 6 log
[7]; O/W emulsion, 28 days
  Log Reduction E. coli: 6 log
[7]; W/O emulsion, 2 days
  Log Reduction E. coli: 6 log
[7]; W/O emulsion, 7 days
  Log Reduction E. coli: 6 log
[7]; W/O emulsion, 14 days
  Log Reduction E. coli: 6 log
[7]; W/O emulsion, 28 days
  Log Reduction E. coli: 6 log
[8]; O/W emulsion, 2 days
  Log Reduction A. niger: 0 log
[8]; O/W emulsion, 7 days
  Log Reduction A. niger: 0 log
[8]; O/W emulsion, 14 days
  Log Reduction A. niger: 0 log
[8]; O/W emulsion, 28 days
  Log Reduction A. niger: 0 log
[8]; W/O emulsion, 2 days
  Log Reduction A. niger: 0 log
[8]; W/O emulsion, 7 days
  Log Reduction A. niger: 0 log
[8]; W/O emulsion, 14 days
  Log Reduction A. niger: 0 log
[8]; W/O emulsion, 28 days
  Log Reduction A. niger: 0 log
[9]
  log reduction S. aureus ATCC 6538 48 h: >3 log
  log reduction S. aureus ATCC 6538 72 h: >3 log
[10]
  log reduction E. coli ATCC 10536 48 h: >3 log
  log reduction E. coli ATCC 10536 72 h: >3 log
[11]
  log reduction C. albicans ATCC 10231 48 h: >3 log
  log reduction C. albicans ATCC 10231 72 h: >3 log
[12]
  log reduction A. niger ATCC 16404 48 h: 1.8 log
  log reduction A. niger ATCC 16404 72 h: 2.3 log
[13]
  log reduction P. aeruginosa ATCC 15442 48 h: >3 log
  log reduction P. aeruginosa ATCC 15442 72 h: >3 log
[14]
  log reduction S. aureus 5 min.: 3.2 log
  log reduction S. aureus 30 min.: 3.7 log
[15]
  log reduction E. coli 5 min.: <1 log
  log reduction E. coli 30 min.: 1.2 log
